Reference: US12410161B2, “Tetrahydrobenzo-quinoline sulfonamides derivative compounds” (UCB Biopharma SRL, priority 2019, dated 2025)

Biological target: T1, IgE-Tb binding to soluble IgE receptor FcεRIα-Y131A-AF488 (Homo sapiens, UniProt P0DOX4, N265Q/N371Q)
T1 construct: 86 nmoles of IgE-Fc(N265Q, N371Q) (Young et al., 1995)
Test: In vitro FRET assay of IgE-Tb binding to FcεRIα receptor (protocol for most examples, 2 hours incubation)
Details: 5 nM IgE-Tb, 25 nM FcεRIα-Y131A-AF488; incubated 2 hours at room temperature; read-out: FRET IC50 range
Description: In vitro Biochemical Assay: Protocol for preparation of IgE-Tb reagent 86 nmoles of […]) (Young et al., 1995) at 172 μM in 100 mM NaHCO3, pH 9.5 was added to 1 mg of LanthaScreenTM Amine Reactive Tb Chelate (ThermoFisher catalogue number PV3583) and incubated for 16 hours at 20° C. The material was then buffer exchanged into Phosphate Buffered Saline (being, 137 mM NaCl, 2.7 mM KCl, 10 mM Na2HPO4, 1.8 mM K2HPO4, pH 7.4) and the material quantified and the degree of Tb conjugation determined by measuring the absorption at 280 nm and 343 nm. The integrity of the conjugated material was determined by analytical size exclusion chromatography on a 5200 HR 10×300 column (GE Healthcare). Typical conjugation ratios were 4:1 Tb:IgE-Fc. • Young R J., Owens, […]., Chan C M W., Shi J., Hide […]., Henry A J., Sutton B J., and Gould H J (1995) Protein Engineering 8:193-199 Protocol for preparation of […] reagent […] Oxidation was quenched with the addition of 40 μl of ethanediol and incubation for 60 minutes at 22° C. The protein was buffer exchanged in to conjugation buffer (50 mM NaHCO3, 150 mM NaCl, pH 9.5) and concentrated to 750 μM. 175 nmoles of protein was added to 1 mg of Alexa FluorTM 488 hydrazide (Invitrogen) and incubated for 16 hours at 22° C. […] The protein was buffer exchanged into Phosphate Buffered Saline (being, 137 mM NaCl, 2.7 mM KCl, 10 mM Na2HPO4, 1.8 mM K2HPO4, pH 7.4) and the material quantified and the degree of Alexa FluorTM 488 conjugation determined by measuring the absorption at 280 nm and 495 nm. The integrity of the conjugated material was determined by analytical size exclusion chromatography on a 5200 HR 10×300 column (GE Healthcare). Typical conjugation ratios were 2:1 Alexa FluorTM488: sFcεR1α • Cook J P D., Henry […]., Owens R J., Sutton B J., and Gould H J (1997) Biochemistry 36:15579-15588 The aim was to measure binding of IgE-Tb to receptor, and the inhibition thereof by compounds, using an in vitro Fluorescence Resonance Energy Transfer (FRET) Assay. Reagents FRET reagents used were IgE labelled with Terbium (FRET donor), and soluble IgE receptor FcεRIα with a Y131A mutation, labelled with Alexa FluorTM 488 (FRET acceptor). Unlabelled FcεRIα was also used to generate a background control. The assay buffer consisted of 20 mM Tris pH7.2, 150 mM NaCl, and 0.002% Tween, 1% DMSO. Assay Reaction For most of the examples the assay was conducted according to the following: Each assay reaction was conducted in a volume of 25 μl in a 384-well half-volume plate. 10 point compound serial dilutions (3-fold) were generated in DMSO at a concentration of ×50 that of the final assay concentration (FAC). Compound solutions were then prepared by IgE-Tb diluting 10-fold in assay buffer. For the assay, 5 μl of diluted compound was added to 10 μl of IgE-Tb, followed by addition of 10111 FcεRIα-Y131A-AF488. FRET reagents FACs were 5 nM IgE-Tb, 25 nM FcεRIα-Y131A-AF488. Usually the top FAC of compound in the assay was 10 μM. The final DMSO concentration was 2%. The minimum signal (MIN) was measured by adding 5 μl unlabelled FcεRIα at 1 μM (FAC=200 nM) to the FRET reagents. The maximum FRET signal (MAX) was measured in wells containing FRET reagents but no compound. The assay was incubated for 2 hours at room temperature, protected from light and evaporation, and with gentle agitation. FRET Measurement Measurement of FRET for each well was carried out by exciting at 330 nm and measuring emission at 495/520 nm using an Envision plate reader (Perkin Elmer). FRET ratio was calculated as follows: Emission at 520/Emission at 495×1000. The FRET ratio was used for the data analysis. Data Analysis Z' was calculated as follows (σ=standard deviation and μ=mean): 1-((3×σMAX)+(3×σMIN))/(μMAX-/μMIN) Z' above 0.5 was considered a good assay. Background signal (MIN) was subtracted from all wells. Using the background subtracted values, the percent inhibition by compound in each test-well was calculated as follows: 100-Test-well FRET ratio/MAX FRET ratio×100. […]

T1 sequence (P0DOX4 224-547 N265Q/N371Q limits assumed): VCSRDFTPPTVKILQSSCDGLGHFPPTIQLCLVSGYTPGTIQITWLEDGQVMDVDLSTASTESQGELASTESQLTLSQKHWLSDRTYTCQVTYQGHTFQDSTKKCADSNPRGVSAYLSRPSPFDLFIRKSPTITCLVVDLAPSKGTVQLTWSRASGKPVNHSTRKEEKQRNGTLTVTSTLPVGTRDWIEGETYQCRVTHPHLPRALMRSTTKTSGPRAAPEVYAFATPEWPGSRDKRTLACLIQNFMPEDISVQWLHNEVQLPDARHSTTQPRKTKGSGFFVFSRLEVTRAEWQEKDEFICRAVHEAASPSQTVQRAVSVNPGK

SMILES	IC50 [nM]
Cc1cc(-n2cnnc2NC2CCc3c(cc4cnc(C5CC5)cc4c3S(=O)(=O)NCC(C)(C)F)C2)n(C)n1 (centres unmarked) [Example 24, 3-cyclopropyl-8-[[4-(2,5-dimethylpyrazol-3-yl)-1,2,4-triazol-3-yl]amino]-N-(2-fluoro-2-methyl-propyl)-6,7,8,9-tetrahydrobenzo[g]isoquinoline-5-sulfonamide formic acid]	100 to 2000
CC(C)CNS(=O)(=O)c1c2c(cc3cnc(C4CC4)cc13)CCC(n1cnnc1Nc1cccnc1)C2 (centres unmarked) [Example 14, 3-cyclopropyl-N-(2-methylpropyl)-7-[3-(pyridin-3-ylamino)-1,2,4-triazol-4-yl]-6,7,8,9-tetrahydrobenzo[g]isoquinoline-5-sulfonamide]	1 to 50
Cc1nnc(-c2ccc(N[C@@H]3CCc4cc5cnc(C6CC6)cc5c(S(=O)(=O)NCC(C)C)c4C3)cn2)o1 [Example 17, (7R)-3-cyclopropyl-7-[[6-(5-methyl-1,3,4-oxadiazol-2-yl)pyridin-3-yl]amino]-N-(2-methylpropyl)-6,7,8,9-tetrahydrobenzo[g]isoquinoline-5-sulfonamide]	100 to 1000
Cc1cc(Nc2nncn2C2CCc3c(cc4cnc(C5CC5)cc4c3S(=O)(=O)NCC(C)(C)F)C2)n(C)n1 (centres unmarked) [Example 23, 3-cyclopropyl-8-[3-[(2,5-dimethylpyrazol-3-yl)amino]-1,2,4-triazol-4-yl]-N-(2-fluoro-2-methylpropyl)-6,7,8,9-tetrahydrobenzo[g]isoquinoline-5-sulfonamide]	100 to 2000
CC(C)CNS(=O)(=O)c1c2c(cc3cnc(C4CC4)cc13)CCC(Nc1nncn1-c1cccnc1)C2 (centres unmarked) [Example 15, 3-cyclopropyl-N-(2-methylpropyl)-7-[(4-pyridin-3-yl-1,2,4-triazol-3-yl)amino]-6,7,8,9-tetrahydrobenzo[g]isoquinoline-5-sulfonamide]	100 to 1000
Cc1nnc(-c2ccc(NC3CCc4cc5cnc(C6CC6)cc5c(S(=O)(=O)NCC(C)(C)F)c4C3)cn2)o1 (centres unmarked) [Example 4, 3-cyclopropyl-N-(2-fluoro-2-methylpropyl)-7-[[6-(5-methyl-1,3,4-oxadiazol-2-yl)pyridin-3-yl]amino]-6,7,8,9-tetrahydrobenzo[g]isoquinoline-5-sulfonamide]	100 to 1000
CC(C)CNS(=O)(=O)c1c2c(cc3cnc(C4CC4)cc13)CCC(c1ncc(-c3cccnc3)[nH]1)C2 (centres unmarked) [Example 21, 3-cyclopropyl-N-(2-methylpropyl)-7-(5-pyridin-3-yl-1H-imidazol-2-yl)-6,7,8,9-tetrahydrobenzo[g]isoquinoline-5-sulfonamide]	1 to 50
Cc1ccc(N/C(=N/C#N)NC2CCc3cc4cnc(C5CC5)cc4c(S(=O)(=O)NCC(C)(C)F)c3C2)cc1 (centres unmarked) [Example 3, 2-Cyano-1-[3-cyclopropyl-5-[(2-fluoro-2-methyl-propyl)sulfamoyl]-6,7,8,9-tetrahydrobenzo[g]isoquinolin-7-yl]-3-(p-tolyl)guanidine]	100 to 1000
CC(C)CNS(=O)(=O)c1c2c(cc3cnc(C4CC4)cc13)CCC(n1cnnc1NCC1CC1)C2 (centres unmarked) [Example 16, 3-cyclopropyl-7-[3-(cyclopropylmethylamino)-1,2,4-triazol-4-yl]-N-(2-methylpropyl)-6,7,8,9-tetrahydrobenzo[g]isoquinoline-5-sulfonamide]	1 to 50
Cc1cc(-n2ccnc2NC2CCc3cc4cnc(C5CC5)cc4c(S(=O)(=O)NCC(C)C)c3C2)n(C)n1 (centres unmarked) [Example 20, 3-cyclopropyl-74(1-(2,5-dimethylpyrazol-3-yl)imidazol-2-yl]aminol-N-(2-methylpropyl)-6,7,8,9-tetrahydrobenzo[g]isoquinoline-5-sulfonamide]	100 to 1000
CC(C)CNS(=O)(=O)c1c2c(cc3cnc(C4CC4)cc13)CC(C(=O)NCc1ccccc1)CC2 (centres unmarked) [Example 7, N-benzyl-3-cyclopropyl-5-(2-methylpropylsulfamoyl)-6,7,8,9-tetrahydrobenzo[g]isoquinoline-8-carboxamide]	100 to 1000
Cc1cc(Nc2nncn2C2CCc3cc4cnc(C5CC5)cc4c(S(=O)(=O)NCC(C)(C)F)c3C2)n(C)n1 (centres unmarked) [Example 2, 3-cyclopropyl-7-[3-[(2,5-dimethylpyrazol-3-yl)amino]-1,2,4-triazol-4-yl]-N-(2-fluoro-2-methylpropyl)-6,7,8,9-tetrahydrobenzo[g]isoquinoline-5-sulfonamide]	100 to 1000
Cc1cc(Nc2nncn2C2CCc3cc4cnc(C5CC5)cc4c(S(=O)(=O)NCC(C)C)c3C2)n(C)n1 (centres unmarked) [Example 13, 3-cyclopropyl-7-[3-[(2,5-dimethylpyrazol-3-yl)amino]-1,2,4-triazol-4-yl]-N-(2-methylpropyl)-6,7,8,9-tetrahydrobenzo[g]isoquinoline-5-sulfonamide]	1 to 50
Cc1cc(-n2cnnc2NC2CCc3cc4cnc(C5CC5)cc4c(S(=O)(=O)NCC(C)C)c3C2)n(C)n1 (centres unmarked) [Example 12, 3-cyclopropyl-7-[[4-(2,5-dimethylpyrazol-3-yl)-1,2,4-triazol-3-yl]amino]-N-(2-methylpropyl)-6,7,8,9-tetrahydrobenzo[g]isoquinoline-5-sulfonamide]	100 to 1000
CC(C)CNS(=O)(=O)c1c2c(cc3cnc(C4CC4)cc13)CC(c1ncc(-c3cccnc3)[nH]1)CC2 (centres unmarked) [Example 22, 3-cyclopropyl-N-(2-methylpropyl)-8-(5-pyridin-3-yl-1H-imidazol-2-yl)-6,7,8,9-tetrahydrobenzo[g]isoquinoline-5-sulfonamide]	100 to 1000
CC(C)CNS(=O)(=O)c1c2c(cc3cnc(C4CC4)cc13)CC(C(=O)NCC(C)(C)C)CC2 (centres unmarked) [Example 6, 3-cyclopropyl-N-(2,2-dimethylpropyl)-5-(2-methylpropylsulfamoyl)-6,7,8,9-tetrahydrobenzo[g]isoquinoline-8-carboxamide]	100 to 2000
CC(C)CNS(=O)(=O)c1c2c(cc3cnc(C4CC4)cc13)CCC(C(=O)NCc1ccccc1)C2 (centres unmarked) [Example 8, N-benzyl-3-cyclopropyl-5-(2-methylpropylsulfamoyl)-6,7,8,9-tetrahydrobenzo[g]isoquinoline-7-carboxamide]	1 to 50
CCNc1c(NC2CCc3cc4cnc(C5CC5)cc4c(S(=O)(=O)NCC(C)C)c3C2)c(=O)c1=O (centres unmarked) [Example 19, 3-cyclopropyl-7-[[2-(ethylamino)-3,4-dioxocyclobuten-1-yl]amino]-N-(2-methylpropyl)-6,7,8,9-tetrahydrobenzo[g]isoquinoline-5-sulfonamide]	1 to 50
Cc1ccc2c(C(=O)NC3CCc4cc5cnc(C6CC6)cc5c(S(=O)(=O)NCC(C)C)c4C3)c[nH]c2c1 (centres unmarked) [Example 11, N-[3-cyclopropyl-5-(2-methylpropylsulfamoyl)-6,7,8,9-tetrahydrobenzo[g]isoquinolin-7-yl]-6-methyl-1H-indole-3-carboxamide]	100 to 1000
CC(C)CNS(=O)(=O)c1c2c(cc3cnc(C4CC4)cc13)CCC(C(=O)NCC(C)(C)C)C2 (centres unmarked) [Example 5, 3-cyclopropyl-N-(2,2-dimethylpropyl)-5-(2-methylpropylsulfamoyl)-6,7,8,9-tetrahydrobenzo[g]isoquinoline-7-carboxamide]	50 to 100
